In ChEMBL document CHEMBL5291721, “A preclinical secondary pharmacology resource illuminates target-adverse drug reaction associations of marketed drugs” (Nat Commun, 2023) one finds AC50 data, which are given here for 8 compounds.

Where only a bound is given, the exact number is not on record here.

Targets include Motilin receptor (Homo sapiens, UniProt O43193); Cannabinoid receptor 1 (Homo sapiens, UniProt P21554); Vasopressin V1a receptor (Homo sapiens, UniProt P37288).
Assay [1] concerns the target Growth hormone secretagogue receptor type 1 (Homo sapiens, UniProt Q92847).
The next assay addresses T1, Thromboxane A2 receptor (Homo sapiens, UniProt P21731).
T1 sequence (P21731 whole entry): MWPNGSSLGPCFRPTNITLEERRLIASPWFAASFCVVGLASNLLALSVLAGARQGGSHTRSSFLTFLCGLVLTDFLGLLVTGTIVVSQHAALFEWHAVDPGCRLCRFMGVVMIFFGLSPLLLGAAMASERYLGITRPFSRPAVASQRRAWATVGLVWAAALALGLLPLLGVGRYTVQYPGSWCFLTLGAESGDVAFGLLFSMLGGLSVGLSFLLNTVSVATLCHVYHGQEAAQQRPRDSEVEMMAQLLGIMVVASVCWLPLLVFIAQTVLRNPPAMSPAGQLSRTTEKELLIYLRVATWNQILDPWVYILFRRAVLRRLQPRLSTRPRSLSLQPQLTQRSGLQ

The target of assay [2] is T2, Cholecystokinin receptor type A (Homo sapiens, UniProt P32238).
T2 sequence (P32238 whole entry): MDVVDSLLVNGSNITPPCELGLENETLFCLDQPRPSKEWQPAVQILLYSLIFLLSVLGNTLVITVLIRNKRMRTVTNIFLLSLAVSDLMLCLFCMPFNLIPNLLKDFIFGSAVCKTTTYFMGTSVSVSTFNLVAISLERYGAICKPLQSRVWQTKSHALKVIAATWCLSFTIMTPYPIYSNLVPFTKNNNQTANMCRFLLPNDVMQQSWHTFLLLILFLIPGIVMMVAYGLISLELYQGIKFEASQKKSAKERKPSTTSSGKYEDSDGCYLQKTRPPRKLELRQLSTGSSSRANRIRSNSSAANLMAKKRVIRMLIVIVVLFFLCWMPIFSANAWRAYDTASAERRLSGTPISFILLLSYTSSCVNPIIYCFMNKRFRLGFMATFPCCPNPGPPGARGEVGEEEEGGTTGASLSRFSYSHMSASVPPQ

For assay [3], the target named is T3, Equilibrative nucleoside transporter 1 (Homo sapiens, UniProt Q99808).
T3 sequence (Q99808 whole entry): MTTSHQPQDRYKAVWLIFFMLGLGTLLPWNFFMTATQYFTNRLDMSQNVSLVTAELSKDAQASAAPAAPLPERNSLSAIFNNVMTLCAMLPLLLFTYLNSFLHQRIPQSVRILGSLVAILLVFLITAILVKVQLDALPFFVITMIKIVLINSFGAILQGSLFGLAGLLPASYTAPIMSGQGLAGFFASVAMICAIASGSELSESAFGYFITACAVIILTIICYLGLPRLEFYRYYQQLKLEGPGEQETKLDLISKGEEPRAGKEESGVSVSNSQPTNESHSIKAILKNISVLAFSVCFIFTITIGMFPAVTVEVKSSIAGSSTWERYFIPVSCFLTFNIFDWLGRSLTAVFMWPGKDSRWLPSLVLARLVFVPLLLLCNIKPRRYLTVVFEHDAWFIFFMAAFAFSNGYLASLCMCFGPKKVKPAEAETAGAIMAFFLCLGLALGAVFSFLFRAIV

The target in assay [4] is Neuronal acetylcholine receptor subunit alpha-4 (Homo sapiens, UniProt P43681).
The target in assay [5] is Voltage-dependent L-type calcium channel subunit alpha-1C (Rattus norvegicus, UniProt P22002). The format is functional.
A further assay addresses T4, Adenosine receptor A1 (Homo sapiens, UniProt P30542).
T4 sequence (P30542 whole entry): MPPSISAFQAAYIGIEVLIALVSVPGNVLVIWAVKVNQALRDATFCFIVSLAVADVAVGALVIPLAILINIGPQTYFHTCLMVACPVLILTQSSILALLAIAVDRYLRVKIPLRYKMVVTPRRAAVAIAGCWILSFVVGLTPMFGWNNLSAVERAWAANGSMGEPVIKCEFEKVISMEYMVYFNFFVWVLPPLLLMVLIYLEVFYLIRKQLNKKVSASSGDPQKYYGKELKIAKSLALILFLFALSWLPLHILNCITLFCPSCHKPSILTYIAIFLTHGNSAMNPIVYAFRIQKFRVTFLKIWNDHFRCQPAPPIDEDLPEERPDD

Assay [6] addresses T5, Mu-type opioid receptor (Homo sapiens, UniProt P35372).
The target in another assay is T6, Endothelin-1 receptor (Homo sapiens, UniProt P25101).
T6 sequence (P25101 whole entry): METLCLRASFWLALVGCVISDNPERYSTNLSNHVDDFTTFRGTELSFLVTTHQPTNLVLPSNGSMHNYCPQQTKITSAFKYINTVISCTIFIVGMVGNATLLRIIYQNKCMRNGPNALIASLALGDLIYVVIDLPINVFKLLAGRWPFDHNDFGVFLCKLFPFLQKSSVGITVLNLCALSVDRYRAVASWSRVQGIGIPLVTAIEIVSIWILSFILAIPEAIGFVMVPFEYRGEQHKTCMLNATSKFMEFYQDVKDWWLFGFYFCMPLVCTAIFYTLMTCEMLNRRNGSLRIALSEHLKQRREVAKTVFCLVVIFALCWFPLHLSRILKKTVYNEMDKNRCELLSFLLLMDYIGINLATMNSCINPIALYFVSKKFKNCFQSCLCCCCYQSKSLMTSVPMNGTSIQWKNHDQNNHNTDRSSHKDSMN

The target of assay [7] is T5, Mu-type opioid receptor. Description: biochemical. The format is functional.

Motilin receptor, sequence (O43193 whole entry): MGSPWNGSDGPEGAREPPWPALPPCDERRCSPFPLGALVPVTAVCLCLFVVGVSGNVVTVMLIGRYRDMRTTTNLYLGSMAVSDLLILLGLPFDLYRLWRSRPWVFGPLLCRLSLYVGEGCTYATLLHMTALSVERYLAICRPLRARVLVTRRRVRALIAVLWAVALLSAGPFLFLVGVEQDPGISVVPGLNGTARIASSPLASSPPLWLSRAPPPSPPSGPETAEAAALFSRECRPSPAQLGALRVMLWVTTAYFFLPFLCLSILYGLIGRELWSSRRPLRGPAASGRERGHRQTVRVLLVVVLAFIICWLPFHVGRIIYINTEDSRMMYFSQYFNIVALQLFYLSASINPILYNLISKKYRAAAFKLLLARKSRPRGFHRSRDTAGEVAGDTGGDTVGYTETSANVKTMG
T5 sequence (P35372 whole entry): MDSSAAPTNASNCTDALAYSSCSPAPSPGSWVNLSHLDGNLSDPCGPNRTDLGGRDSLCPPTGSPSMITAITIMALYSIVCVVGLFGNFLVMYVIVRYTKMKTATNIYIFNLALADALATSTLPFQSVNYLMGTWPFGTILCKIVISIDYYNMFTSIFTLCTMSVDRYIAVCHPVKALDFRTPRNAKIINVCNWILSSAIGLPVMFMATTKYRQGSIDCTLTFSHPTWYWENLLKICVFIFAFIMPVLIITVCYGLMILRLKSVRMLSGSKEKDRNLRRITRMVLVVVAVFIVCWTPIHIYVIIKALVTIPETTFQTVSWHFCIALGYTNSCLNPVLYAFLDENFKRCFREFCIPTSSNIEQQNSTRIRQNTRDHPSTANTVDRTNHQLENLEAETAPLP
Neuronal acetylcholine receptor subunit alpha-4, sequence (P43681 whole entry): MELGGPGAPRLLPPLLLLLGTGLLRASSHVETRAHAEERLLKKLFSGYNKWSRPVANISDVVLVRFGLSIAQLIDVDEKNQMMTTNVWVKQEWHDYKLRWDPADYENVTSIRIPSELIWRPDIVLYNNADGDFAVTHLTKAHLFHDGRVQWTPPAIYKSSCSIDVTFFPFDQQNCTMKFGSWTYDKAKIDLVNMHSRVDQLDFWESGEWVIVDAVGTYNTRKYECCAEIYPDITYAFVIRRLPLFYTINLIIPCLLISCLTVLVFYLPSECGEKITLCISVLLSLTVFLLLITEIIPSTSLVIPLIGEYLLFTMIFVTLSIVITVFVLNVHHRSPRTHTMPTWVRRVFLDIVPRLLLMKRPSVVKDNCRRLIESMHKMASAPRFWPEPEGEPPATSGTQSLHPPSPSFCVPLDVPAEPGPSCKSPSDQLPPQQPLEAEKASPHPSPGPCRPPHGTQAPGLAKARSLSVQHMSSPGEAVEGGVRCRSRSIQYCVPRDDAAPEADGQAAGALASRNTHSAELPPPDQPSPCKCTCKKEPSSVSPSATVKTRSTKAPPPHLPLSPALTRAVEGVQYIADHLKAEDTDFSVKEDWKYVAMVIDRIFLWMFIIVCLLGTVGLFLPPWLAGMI
Voltage-dependent L-type calcium channel subunit alpha-1C, sequence (P22002 whole entry): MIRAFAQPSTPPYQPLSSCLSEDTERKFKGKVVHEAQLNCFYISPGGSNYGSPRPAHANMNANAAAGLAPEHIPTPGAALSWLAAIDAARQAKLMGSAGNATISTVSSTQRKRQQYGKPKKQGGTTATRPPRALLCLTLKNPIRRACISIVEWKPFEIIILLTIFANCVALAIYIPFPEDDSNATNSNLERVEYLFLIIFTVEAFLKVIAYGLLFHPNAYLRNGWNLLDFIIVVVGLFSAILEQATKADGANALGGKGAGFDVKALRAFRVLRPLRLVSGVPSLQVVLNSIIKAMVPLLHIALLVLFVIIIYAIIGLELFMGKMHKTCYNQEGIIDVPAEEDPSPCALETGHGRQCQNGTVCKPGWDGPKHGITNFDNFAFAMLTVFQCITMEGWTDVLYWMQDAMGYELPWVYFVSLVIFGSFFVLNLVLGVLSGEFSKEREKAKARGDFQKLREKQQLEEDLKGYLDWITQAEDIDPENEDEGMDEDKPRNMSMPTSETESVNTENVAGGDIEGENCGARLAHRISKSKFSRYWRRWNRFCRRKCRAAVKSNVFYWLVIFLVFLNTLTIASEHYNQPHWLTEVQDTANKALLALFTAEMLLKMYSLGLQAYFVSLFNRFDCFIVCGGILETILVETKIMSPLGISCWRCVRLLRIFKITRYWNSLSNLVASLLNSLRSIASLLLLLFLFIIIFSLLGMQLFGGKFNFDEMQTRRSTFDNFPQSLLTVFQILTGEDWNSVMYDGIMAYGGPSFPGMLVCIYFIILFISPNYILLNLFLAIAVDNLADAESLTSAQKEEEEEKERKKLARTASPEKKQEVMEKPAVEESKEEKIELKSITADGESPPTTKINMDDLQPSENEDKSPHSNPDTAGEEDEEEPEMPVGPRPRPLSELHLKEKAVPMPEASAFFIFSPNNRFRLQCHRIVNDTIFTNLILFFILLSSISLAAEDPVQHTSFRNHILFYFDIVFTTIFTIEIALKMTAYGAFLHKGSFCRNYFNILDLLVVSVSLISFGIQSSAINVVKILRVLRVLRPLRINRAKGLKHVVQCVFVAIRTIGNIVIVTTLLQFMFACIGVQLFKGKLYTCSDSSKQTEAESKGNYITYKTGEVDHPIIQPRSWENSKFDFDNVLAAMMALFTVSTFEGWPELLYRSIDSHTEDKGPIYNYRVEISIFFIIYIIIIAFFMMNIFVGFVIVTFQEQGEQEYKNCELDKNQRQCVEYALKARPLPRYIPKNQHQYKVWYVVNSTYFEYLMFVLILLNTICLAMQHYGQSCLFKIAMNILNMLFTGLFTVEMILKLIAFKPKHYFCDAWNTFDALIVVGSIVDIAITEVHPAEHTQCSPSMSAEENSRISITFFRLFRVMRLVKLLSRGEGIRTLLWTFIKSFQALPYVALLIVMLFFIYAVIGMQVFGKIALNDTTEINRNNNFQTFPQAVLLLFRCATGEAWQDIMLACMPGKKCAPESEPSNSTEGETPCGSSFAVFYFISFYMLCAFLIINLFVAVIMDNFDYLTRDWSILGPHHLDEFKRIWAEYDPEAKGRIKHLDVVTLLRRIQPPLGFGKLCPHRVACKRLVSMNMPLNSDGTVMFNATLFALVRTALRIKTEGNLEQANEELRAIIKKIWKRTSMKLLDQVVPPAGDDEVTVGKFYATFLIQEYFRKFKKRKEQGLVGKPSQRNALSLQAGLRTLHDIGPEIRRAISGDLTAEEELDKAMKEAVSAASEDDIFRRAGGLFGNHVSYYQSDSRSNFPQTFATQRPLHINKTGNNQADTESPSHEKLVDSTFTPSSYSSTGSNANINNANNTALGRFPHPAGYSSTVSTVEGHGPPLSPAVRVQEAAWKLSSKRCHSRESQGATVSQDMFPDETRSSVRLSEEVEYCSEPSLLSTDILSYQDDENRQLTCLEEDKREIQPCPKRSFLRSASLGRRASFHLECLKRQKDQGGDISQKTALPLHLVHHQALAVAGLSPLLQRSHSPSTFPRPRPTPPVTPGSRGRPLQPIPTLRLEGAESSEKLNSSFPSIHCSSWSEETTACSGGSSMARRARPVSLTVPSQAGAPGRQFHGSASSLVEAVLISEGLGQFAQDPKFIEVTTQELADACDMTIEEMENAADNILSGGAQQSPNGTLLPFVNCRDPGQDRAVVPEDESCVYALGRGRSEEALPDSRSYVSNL
Growth hormone secretagogue receptor type 1, sequence (Q92847 whole entry): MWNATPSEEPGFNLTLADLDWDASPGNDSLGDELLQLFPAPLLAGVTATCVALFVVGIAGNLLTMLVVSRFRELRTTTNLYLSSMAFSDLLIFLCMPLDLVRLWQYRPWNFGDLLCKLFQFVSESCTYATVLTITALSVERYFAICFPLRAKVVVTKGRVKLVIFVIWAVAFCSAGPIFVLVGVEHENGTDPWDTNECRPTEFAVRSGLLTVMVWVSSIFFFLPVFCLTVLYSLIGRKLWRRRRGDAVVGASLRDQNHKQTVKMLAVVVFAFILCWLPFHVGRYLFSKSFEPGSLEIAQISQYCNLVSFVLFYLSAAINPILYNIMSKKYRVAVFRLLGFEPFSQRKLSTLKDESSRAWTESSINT
Vasopressin V1a receptor, sequence (P37288 whole entry): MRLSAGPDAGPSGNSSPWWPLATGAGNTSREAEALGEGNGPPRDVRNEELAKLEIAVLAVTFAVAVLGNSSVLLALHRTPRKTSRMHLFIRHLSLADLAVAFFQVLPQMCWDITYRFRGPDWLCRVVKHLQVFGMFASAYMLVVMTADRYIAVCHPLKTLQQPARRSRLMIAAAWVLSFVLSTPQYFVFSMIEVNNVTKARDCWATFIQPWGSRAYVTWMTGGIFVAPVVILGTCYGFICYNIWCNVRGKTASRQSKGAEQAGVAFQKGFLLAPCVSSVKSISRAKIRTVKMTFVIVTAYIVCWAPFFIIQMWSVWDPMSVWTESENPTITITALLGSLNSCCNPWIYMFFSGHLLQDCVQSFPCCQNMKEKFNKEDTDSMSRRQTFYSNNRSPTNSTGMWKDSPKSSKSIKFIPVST
Cannabinoid receptor 1, sequence (P21554 whole entry): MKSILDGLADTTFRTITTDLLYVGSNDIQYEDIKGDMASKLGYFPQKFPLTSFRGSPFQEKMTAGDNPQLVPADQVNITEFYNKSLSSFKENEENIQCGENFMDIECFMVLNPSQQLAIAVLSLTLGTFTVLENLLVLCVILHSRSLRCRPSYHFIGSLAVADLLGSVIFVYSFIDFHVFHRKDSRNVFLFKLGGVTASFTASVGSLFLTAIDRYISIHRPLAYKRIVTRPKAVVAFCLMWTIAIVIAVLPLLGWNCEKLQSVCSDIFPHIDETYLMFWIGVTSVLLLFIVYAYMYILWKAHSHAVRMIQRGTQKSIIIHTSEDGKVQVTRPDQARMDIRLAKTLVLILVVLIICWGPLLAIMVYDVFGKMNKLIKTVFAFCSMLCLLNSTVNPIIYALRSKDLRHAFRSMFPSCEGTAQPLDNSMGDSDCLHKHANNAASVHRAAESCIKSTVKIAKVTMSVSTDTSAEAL

With `CN(C/C=C/c1ccccc1)Cc1cccc2ccccc12` [NAFTIFINE], the AC50 in [1] is above 30 µM; at Motilin receptor, above 10 µM; on Thromboxane A2 receptor, above 30 µM; in assay [2], above 30 µM; in [3], above 30 µM; in [4], above 10 µM. Besides, the AC50 at Cannabinoid receptor 1 was 9.87 µM; in assay [5], above 10 µM; on Adenosine receptor A1, above 30 µM; at Mu-type opioid receptor [6], above 30 µM.
In the case of `CCCC(=O)N1CCCN(c2nc(N)c3cc(OC)c(OC)cc3n2)CC1` [BUNAZOSIN], the AC50 (in assay [1]; at Motilin receptor; at Endothelin-1 receptor; in assay [2]; in assay [3]; in [4]) was above 30 µM each time. Further, the AC50 on Vasopressin V1a receptor, at Adenosine receptor A1 and on Mu-type opioid receptor [7] was above 30 µM each time.
As to `CC(C(O)c1ccc(O)cc1)N1CCC(Cc2ccccc2)CC1` (centres undefined) [IFENPRODIL], the AC50 (in [1]; at Motilin receptor; at Thromboxane A2 receptor; at Endothelin-1 receptor; in assay [2]; in assay [4]) was above 30 µM in each case. The AC50 (in assay [5]; at Vasopressin V1a receptor; on Adenosine receptor A1; at Mu-type opioid receptor [7]) was above 30 µM in each case.
Turning to `CC(=O)N(CC(O)CO)c1c(I)c(C(=O)NCC(O)CO)c(I)c(C(=O)NCC(O)CO)c1I` (centres undefined) [IOHEXOL], the AC50 is above 30 µM in [1]; above 10 µM on Motilin receptor; above 30 µM at Thromboxane A2 receptor; above 30 µM in [2]; above 30 µM in [3]; above 10 µM in assay [4]. For the same compound, the AC50 in assay [5] was above 10 µM; at Vasopressin V1a receptor, above 30 µM; at Adenosine receptor A1 it was above 30 µM; on Mu-type opioid receptor [6], above 30 µM.
`CN(CCCN1c2ccccc2CCc2ccccc21)CC(=O)c1ccc(Cl)cc1` [LOFEPRAMINE]: the AC50 was 25 µM in assay [1]; above 30 µM at Motilin receptor; above 30 µM at Thromboxane A2 receptor; above 30 µM on Endothelin-1 receptor; above 30 µM in [2]; above 30 µM in [3]. The AC50 is above 30 µM in [4]; 6.9 µM on Cannabinoid receptor 1; 2.4 µM in [5]; above 30 µM on Vasopressin V1a receptor; above 30 µM at Adenosine receptor A1; above 30 µM on Mu-type opioid receptor [7].
`C[N+](C)(C)CC(=O)O` [BETAINE]: the AC50 (in assay [1]; at Motilin receptor; on Thromboxane A2 receptor; on Endothelin-1 receptor; in [2]; in [3]) was above 30 µM throughout. Moreover, the AC50 (in assay [4]; in assay [5]; at Vasopressin V1a receptor; on Adenosine receptor A1; on Mu-type opioid receptor [7]) was above 30 µM throughout.
On to `N[C@@H](CSCC(=O)O)C(=O)O` [CARBOCYSTEINE], for which the AC50 (in assay [1]; at Motilin receptor; at Thromboxane A2 receptor; on Endothelin-1 receptor; in assay [2]; in [3]) was above 30 µM in each case. Besides, the AC50 (in assay [4]; in assay [5]; on Vasopressin V1a receptor; on Adenosine receptor A1; on Mu-type opioid receptor [7]) was above 30 µM throughout.
For the compound `NS(=O)(=O)c1cc(-c2nnn[nH]2)c(NCc2cccs2)cc1Cl` [AZOSEMIDE], the AC50 (in assay [1]; at Motilin receptor; at Thromboxane A2 receptor; on Endothelin-1 receptor; in [2]; in assay [3]) was above 30 µM each time. Besides, the AC50 (in assay [4]; in assay [5]; on Vasopressin V1a receptor; on Adenosine receptor A1; on Mu-type opioid receptor [7]) was above 30 µM in each case.

Broadly, the AC50 is the midpoint of the concentration-response curve, whichever way the signal moves.
